# Laboratory results from patent US20100144788A1 (priority 2007, published 2010).
# How the values were obtained:
# [1] = test system: Spontaneously hypertensive rats (SHR); assay: Spontaneously hypertensive rats, animal model of ADHD: operant task with delayed food-reward and circadian activity recording; type: in vivo, rat
# Experimental: Core symptoms of ADHD are attention deficit, hyperactivity and increased impulsiveness. Spontaneously hypertensive rats (SHR) were used as animal model for attention deficit hyperactivity disorder (ADHD), Wistar Kyoto rats (the root strain of SHR) served as controls [Biol. Psychiatry. 57, 1239-47, 2005]. To assess these symptoms, an operant task involving a delayed food-reward was used to measure attention- and impulsiveness-related parameters. Attention deficits were measured as increase in the number of lever presses on the wrong side. Impulsiveness was measured as lever presses and reward chamber inspections during the OFF state in test sessions without delayed reward and during the delay interval in the test sessions with delayed rewarding. Hyperactivity was monitored by circadian recording in infra-red cages.
# Methods: Operant testing was performed in 20 hours sessions, each in operant behaviour cages with two levers and adjacent reward chambers on the right and left side of the lever panel. The animals had access to food only via lever presses, and fluid was freely available. Training and testing consisted of the following phases:
# • (1) Both levers were continuously active (indicated by a signal light). […] The signal light on the correct side indicated the state of the lever (ON or OFF).
# • (1) Like Acquisition (3) • (2) Like (1), except that after a lever press of an active lever, the reward was not presented immediately, but after a delay interval of 5 seconds.
# [2] = Solubility of salts in water with pH of the saturated solution and identity of the precipitate
# [3] = Hydrate formation when precipitated from water; type: physicochemical
# Description: Crystals used in the present invention may exist as solvates, i.e. crystals wherein solvent molecules form part of the crystal structure. The solvate may be formed from water, in which case the solvates are often referred to as hydrates. Alternatively, the solvates may be formed from other solvents, such as e.g. ethanol, acetone, or ethyl acetate. The exact amount of solvate often depends on the conditions. For instance, hydrates will typically loose water as the temperature is increased or as the relative humidity is decreased.
# [4] = test system: extracellular levels of acetylcholine; assay: Microdialysis, extracellular acetylcholine in prefrontal cortex and ventral hippocampus of Sprague-Dawley rats (Example 2G); type: in vivo, rat
# Experimental: Male Sprague-Dawley rats, initially weighing 275-300 g, were used. The animals were housed under a 12-hr light/dark cycle under controlled conditions for regular in-door temperature (21±2° C.) and humidity (55±5%) with food and tap water available ad libitum.
# Rats were anaesthetised with hypnorm/dormicum (2 ml/kg) and intracerebral guide cannulas (CMA/12) were stereotaxically implanted into the hippocampus, aiming to position the dialysis probe tip in the ventral hippocampus (co-ordinates: 5,6 mm posterior to bregma, lateral −5,0 mm, 7,0 mm ventral to dura or in the frontal cortex (co-ordinates: 3,2 mm anterior to bregma; lateral, 0,8 mm; 4,0 mm ventral to dura). Anchor screws and acrylic cement were used for fixation of the guide cannulas. The body temperature of the animals was monitored by rectal probe and maintained at 37° C. The rats were allowed to recover from surgery for 2 days, housed singly in cages. […]
# Concentration of acetylcholine (ACh) in the dialysates was analysed by means of HPLC with electrochemical detection using a mobile phase consisting of 100 mM disodium hydrogenphosphate, 2.0 mM octane sulfonic acid, 0.5 mM tetramethyl-ammonium chloride and 0.005% MB (ESA), pH 8.0. […] The latter was detected electrochemical by using a platinum electrode (Analytical cell: ESA, model 5040). […]
# [5] = test system: extracellular levels of acetylcholine; assay: Microdialysis, extracellular acetylcholine in prefrontal cortex of freely-moving Wistar rats (Example 2F); type: in vivo, rat; settings: s.c.
# Experimental: Male Wistar rats (280-350 g; Harlan, Zeist, The Netherlands) were used for the experiments. Rats were individually housed in plastic cages (30×30×40 cm) and had ad libitum access to food and water.
# Rats were anesthetized using isoflurane (2%, 400 mL/min N2O, 400 ml/min O2). Lidocain (10% m/v) was used for local anesthesia. Each animal was placed into a stereotaxic frame (Kopf instruments, USA), and home-made I-shaped probes (Hospal AN 69 membrane, 4 mm exposed surface) were inserted into the medial prefrontal cortex (mPFC) using the rat brain atlas of Paxinos and Watson (1982). Coordinates for the tip of the probe was mPFC [AP=3.4 mm, L=−0.8 mm, V=5.0 mm]. The probe was then fixed to the skull with dental cement and a srew. Flunixin (1 mg/kg s.c.) was administered as post-operative analgesic.
# Experiments were carried out 24-48 hours after surgery. […] Samples were collected by an automated fraction collector (CMA 142), and stored at −80° C. until analyzed. […]
# Concentrations of acetylcholine were determined by HPLC with tandem mass spectrometry (MS/MS) detection. […]
# The LC/MS analyses were performed using a API 4000 MS/MS system consisting of a API 4000 MS/MS detector and a Turbo Ion Spray interface (both from Applied Biosystems, the Netherlands). […] Data were calibrated and quantitated using the Analyst™ data system (Applied Biosystem, version 1.2). […]
# [6] = biological target: T1, NET (Rattus norvegicus, UniProt Q9WTR4); assay: Norepinephrine (NE) reuptake inhibition, rat cortical synaptosomes, [3H]NE; type: biochemical; settings: [3H]NE 10 nM
# T1 construct: rat cortical synaptosome preparation; from tissue; host or cells: rat cortical synaptosomes
# Experimental: Non-specific uptake was determined in the presence of 10 μM talsupram or citalopram and the total uptake was determined in the presence of buffer. Aliquots were incubated for 15 minutes at 37° C. […] Filters were washed and counted in a Wallac MicroBeta counter.
# [7] = biological target: T2, human alpha1A-7 receptors (Homo sapiens, UniProt P35348); assay: Antagonism of adrenaline evoked release of Ca2+ in CHO cells expressing human alpha1A-7 receptors (FLIPR); type: cell-based; settings: functional assay
# T2 construct: expressed in transfected cells; host or cells: CHO cells
# T2 sequence (P35348 1-466): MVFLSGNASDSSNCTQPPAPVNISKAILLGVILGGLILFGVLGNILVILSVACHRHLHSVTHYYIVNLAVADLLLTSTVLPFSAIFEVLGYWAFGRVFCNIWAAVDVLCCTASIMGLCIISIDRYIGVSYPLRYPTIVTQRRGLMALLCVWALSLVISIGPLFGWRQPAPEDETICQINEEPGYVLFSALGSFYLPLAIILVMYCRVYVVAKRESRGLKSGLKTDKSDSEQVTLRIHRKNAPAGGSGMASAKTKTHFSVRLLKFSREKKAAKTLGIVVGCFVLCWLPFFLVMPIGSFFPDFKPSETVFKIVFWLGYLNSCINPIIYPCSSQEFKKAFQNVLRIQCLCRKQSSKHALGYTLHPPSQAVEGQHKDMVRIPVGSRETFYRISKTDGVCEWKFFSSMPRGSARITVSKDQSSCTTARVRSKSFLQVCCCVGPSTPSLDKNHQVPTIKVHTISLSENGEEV
# Experimental: These experiments were carried out essentially as described below. All cells were cultured in DMEM medium supplemented with 10% BCS, 4 mM L-glutamine (or 2 mM in the case of COS-7), and 100 units/ml penicillin plus 100 μg/ml streptomycin, at 37° C., in 5% CO2. Twenty-four hours prior to assays, CHO cells expressing the human alpha1A-7 receptors were seeded into 384-well black wall microtiter plates coated with poly-D-lysine. […] After excess dye was discarded, cells were washed in assay buffer and layered with a final volume equal to 45 μl/well (or 30 ul/well for antagonist assay). […] Basal fluorescence was monitored in a fluorometric imaging plate reader or FLIPR™ from Molecular Devices (Sunnyvale, Calif.) with an excitation wavelength of 488 nm and an emission range of 500 to 560 nm. Laser excitation energy was adjusted so that basal fluorescence readings were approximately 8,000 relative fluorescent units (RFU). Cells were then stimulated at room temperature with agonists diluted in assay buffer (15 μl), and RFU were measured at 1.5 second intervals over a period of 2.5 min. Maximum change in fluorescence was calculated for each well. Concentration-response curves derived from the maximum change in fluorescence were analyzed by nonlinear regression (Hill equation).
# [8] = SHR, methylphenidate 2 and 5 mg/kg i.p. intermittent, ~10 mg/kg/day chronic via drinking water
# [9] = SHR rats, 5 and 10 mg/kg i.p., injected 30 min before testing
# T1 sequence (Q9WTR4 1-597): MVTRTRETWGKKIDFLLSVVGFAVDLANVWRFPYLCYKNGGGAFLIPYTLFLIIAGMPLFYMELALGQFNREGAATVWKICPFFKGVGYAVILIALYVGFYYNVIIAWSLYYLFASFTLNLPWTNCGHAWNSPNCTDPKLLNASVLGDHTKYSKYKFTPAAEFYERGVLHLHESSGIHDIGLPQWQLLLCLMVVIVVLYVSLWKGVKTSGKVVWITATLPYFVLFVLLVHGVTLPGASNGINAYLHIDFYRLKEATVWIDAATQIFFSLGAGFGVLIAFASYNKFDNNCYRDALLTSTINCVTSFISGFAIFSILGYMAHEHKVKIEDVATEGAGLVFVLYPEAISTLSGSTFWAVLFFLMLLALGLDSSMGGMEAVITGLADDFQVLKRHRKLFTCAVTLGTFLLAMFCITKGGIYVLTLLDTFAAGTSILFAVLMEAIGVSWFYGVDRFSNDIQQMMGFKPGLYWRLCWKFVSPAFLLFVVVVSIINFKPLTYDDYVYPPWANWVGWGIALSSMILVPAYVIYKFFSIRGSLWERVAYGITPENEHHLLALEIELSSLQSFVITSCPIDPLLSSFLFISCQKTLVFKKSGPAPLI
structure (smiles),measurement,setting,value
"COC(=O)C(c1ccccc1)C1CCCCN1 (centres unmarked) [Methylphenidate, reference compound]",attention deficit,[1]; [8],no reduction
same,impulsiveness,[1]; [8],no reduction
same,time course of activity,"[1]; chronic administration via drinking water, ~10 mg/kg/day",did not alter
same,hyperactivity of SHR,"[1]; intermittent administration, 2 and 5 mg/kg i.p., effect lasted a few hours",markedly and dose-dependently aggravated
"O=C(O)CCCC(=O)O [Glutaric acid, 1,5-pentanedioic acid 1:1]",Resulting pH,[2]; pH in the saturated solution of the salt in water,4.6
same,Precipitate,"[2]; whether precipitate isolated after the solubility determination is identical to the compound dissolved, indicative of hydrate formation",=start
"Br.Cc1ccc(Sc2ccccc2C2CCNCC2)cc1 [HBr, 4-(2-p-Tolylsulfanyl-phenyl)-piperidine hydrobromide]",formation of hydrates,[3],does not form hydrates
"Cc1ccc(Sc2ccccc2C2CCNCC2)cc1 [compound I, 4-[2-(4-methylphenylsulfanyl)-phenyl]piperidine]",extracellular level of acetylcholine,[4],increase
same,extracellular level of acetylcholine,[5],increase
same,IC50,[6],23 nM
same,acquisition of the task or general motivation of food seeking,"[1]; SHR rats, 5 and 10 mg/kg i.p.",did not affect
same,attention deficits,[1]; [9],reduced
same,impulsiveness,[1]; [9],reduced
same,hyperactivity - locomotor activity,"[1]; SHR rats, 5 and 10 mg/kg i.p., circadian activity monitoring, for 1 hour without prolonged effects",dose-dependently depressed
same,adrenaline evoked release of Ca2+ from intracellular stores,[7],antagonises
Cc1ccc(Sc2ccccc2C2CCNCC2)cc1,formation of hydrates,[3],do
"O=C(O)CCC(=O)O [Succinic acid, 1,4-butanedioic acid, 2:1]",formation of hydrates,[3],do
